US7173021B2, “Synthesis of temozolomide esters as potent anticancer pro-drugs for topical and transdermal applications in treatments of cancers” (Tianjin North Pharm Sci-Tech Co., Ltd., priority 2004, dated 2007)
Converted amounts (≈) assume the structure as drawn.

Key:
SHG-44 (human glioma) = experiment: In vitro tumour cell growth inhibition (MTT), SHG-44; type: cell-based; conditions: Homo sapiens, SHG-44, Table 2 experiment, 96 h
Description: (§1) Temozolomide (white powder), temozolomide acid (white powder) and temozolomide-8-carboxylate hexyl (white scale crystal) were made in house. For the estimation of in vitro tumour cell growth inhibition, MV3 (human melanoma), M14 (human melanoma), B16 and B16-BL6 (mouse melanoma), SHG-44, TJ899 and TJ905 (human glioma), MCF-7 (human breast), HCT-8 (human colon), A549 (human non small lung), Bel7402 (human hepatocellulor), and BGC-823 (human stomach) were used. All tumour cells were cultured in RPMI-1640 medium supplemented with 10% fetal bovine serum (FBS) at 37° C. in a humidified 5% CO2 incubator.
(§2) After being harvested from culture flasks, a cell suspension of 1×10^4/ml was made by using 1640 RPMI medium supplemented with 10% fetal bovine serum. 100 μl (contains 1000 tumour cells) of the cell suspension was seeded per well of 96-well flat-bottom Costar culture plates at 37° C. in a humidified 5% CO2 incubator for 24 hrs before introducing drugs. Each tested compounds was made for five different concentrations and 100 μl of the each concentration was introduced into parallel three wells; control wells were added with 100 μl of plain medium alone; fluorouracil (a chemotherapeutic antitumour drug) was used as the positive control. Cells were then incubated for 96 h. Proliferative response and cell death were determined using MTT (3-(4,5-dimethylthiazolyl)-2,5-diphenyl-tetrazolium bromide) assay.
(§3) MTT assay: Following incubation of cells with the tested compounds for 96 h, 100 μl of 0.4 mg/ml MTT in RPMI 1640 was added to each well and the plate was incubated at 37° C. for 4 h. The plate was then centrifuged and followed by removal of medium. 150 μl of DMSO was then added to dissolve formazan crystal. DMSO-added plates were placed on a plate shaker for 5 min and absorbance was measured spectrophotometrically at 540 nm (with reference wavelength at 450 nm) using a Benchmark microtiter plate reader (Bio-Rad 550, Bio-Rad Laboratories, CA, U.S.A.).
(§4) The IC50 was calculated from the curve of the tested compound concentrations against the inhibition rate of the tumour cells. Table 1 summarized the experiment results by using six human cancer cell lines, HCT-8 (colon carcinoma), A549 (non small lung carcinoma), MCF-7 (breast), Bel7402 (hepatocellulor carcinoma), BGC-823 (stomach adenocarcinoma), and MV3 (melanoma). Table 2 summarized the results from the experiment results by using two human melanoma cell lines, MV3 and M14, two mouse melanoma cell lines, B16 and B16-BL6, and three human glioma cell lines, TJ899, SHG-44 and TJ905.

[1] = In vitro permeation and metabolism, Franz diffusion cell, full-thickness rat skin; type: in vitro ADME; conditions: 37° C., 8 h, FIGS. 6-8
Source text: Jacketed Franz-type diffusion cells were used throughout the study and the barrier (12) (skin or silicone membrane) was mounted between the two chambers (14, 16) (2.8–3.4 cm^2 available surface area) with the dermal side in contact with the receiver solution (FIG. 2). The diffusion chambers (10) comprised a barrier of skin or silicone membrane (12) mounted between two chambers (14, 16). A cap (18) formed the donor compartment (14). The second receptor compartment (16) contained a receptor cell (20) with a stirring bar (22), sampling port (24) and cover (26). The stirring bar (22) was stirred by means of a magnet plate (28) having a rotating magnet. The receptor compartment comprised a water jacket (30) having a water inlet (32) and a water outlet (34).
Three types of materials were used in permeation studies. • 1. […]
The membrane (as detailed above) was mounted on the diffusion cell (10), on which the surface area available for diffusion of each cell was about 2.8–3.4 cm^2. […] The concentration of each sample solution was determined by using HPLC. […]
As stated above, after the removal of receptor solution, the receiver compartment was refilled with an identical volume of receptor fluid. […] As a consequence, it was necessary to mathematically correct each successive sample concentrations, in the present invention, which was determined by applying the following equation: […]

HCT-8 (human colon) = experiment: In vitro tumour cell growth inhibition (MTT), HCT-8; type: cell-based; conditions: Table 1 experiment, 96 h
Description: as §1, §2, §3
The IC50 was calculated from the curve of the tested compound concentrations against the inhibition rate of the tumour cells. […]

TJ905 (human glioma) = experiment: In vitro tumour cell growth inhibition (MTT), TJ905; type: cell-based; conditions: Homo sapiens, Table 2 experiment, 96 h
Description: as §1, §2, §3, §4

SMILES: CCCCCCOC(=O)c1ncn2c(=O)n(C)nnc12 [temozolomide hexyl ester, Hexyl 3,4-dihydro-3-methyl-4-oxoimidazo[5,1-d]-1,2,3,5-tetrazine-8-carboxylate]
- IC50 (SHG-44 (human glioma)): 9.46 µg/mL (≈ 33.9 µM)
- Permeation through full-thickness rat skin (cumulative amount permeated %) [1]: maximum value
- IC50 (HCT-8 (human colon)): 28.6 µg/mL (≈ 103 µM)
- IC50 (TJ905 (human glioma)): > 100 µg/mL
